Assay results from PubChem BioAssay AID2060883 (Molecular Pharmacology Branch, DTP, NCI, 2025).
Where “and” joins values, the source holds several entries; their conditions need not be identical. Equal entries are not always repeated.

Test system: 843782-103-R-J1-PDC complex spheroid viability
Test: Anticancer human tumor 843782-103-R-J1-PDC patient-derived lung adenocarcinoma cell line growth inhibition [RAS]
Settings: for viability, T/C: stronger effect = lower value
From the text: RAS pathway inhibitors in Combinations in Complex Spheroids
A high-throughput screen of multi-cell type tumor spheroids was designed to identify active combinations of RAS pathway inhibitors and targeted small molecules. Complex spheroids include a stromal component modeled by human endothelial cells (HUVEC) and fibroblasts modeled by human mesenchymal stem cells (MSCs). The concentration ranges selected for each drug and investigational agent were based upon clinically achievable concentrations if the clinical Cmax of the agent was known.
Compounds. The drugs and investigational agents: abemaciclib (NSC768073), cobimetinib (NSC768068), divarasib (GDC6063, NSC841802), docetaxel (NSC628503), GDC-1971 (RLY-1971, NSC841576), gemcitabine (NSC613327), inavolisib (NSC800729), ipatasertib (NSC767898), KB-0742 (NSC834161), MRTX-1133 (NSC836407), osimertinib (NSC779217), RMC-4630 (NSC839698), RMC-6236 (NSC851965), RMC-6291 (NSC852671), Ro-3306 (NSC812927), sapanisertib (NSC764658), SN-38 (NSC673596), staurosporine (NSC755774), SY5609 (NSC837396), and tovorafenib (DAY101, NSC766906), were obtained from the National Cancer Institute (NCI) Developmental Therapeutics Program Chemical Repository. The FDA-approved anticancer drug set is available from the NCI Developmental Therapeutics Program. […] The stock solutions were prepared in dimethyl sulfoxide (DMSO, Sigma-Aldrich, St. Louis, MO, cat. D2650) at 800-fold the tested concentration and stored at -70 degrees C prior to their use. All drugs and investigational agents were tested over a range starting from a high concentration at or near the clinical Cmax and decreasing in half-log increments. If the clinical Cmax for an agent had not been determined, the highest concentration tested was 10 microM.
Cell Culture. All cells were maintained in an incubator at 37 degrees C and 5% CO2 with 95% humidity. The PDC lines were cultured according to standard operating procedures established by the NCI PDMR. All PDCs were thawed and cultured in Matrigel-coated flasks prepared with a working solution of 1X Ham's F-12 nutrient mix, without supplementation (Invitrogen, Waltham, MA, cat. 11765054), 100 U/mL penicillin-streptomycin (Invitrogen, cat. 15140122), and 2.5% Matrigel (Corning Inc., Corning, NY, cat. 354248) for the first three passages. The 362531-283-R-J2-PDC and 782815-120-R-J1-PDC lines were cultured in 6C/Colon 1B media, which includes advanced DMEM/F-12 (Thermo Fisher Scientific, cat. 12634028), 10 mM HEPES (Thermo Fisher Scientific, cat. 15630080), 1X GlutaMAX supplement (Thermo Fisher Scientific, cat. 35050061), 0.1 mg/mL primocin (InvivoGen, San Diego, CA, cat. ant-pm-2), 10% defined fetal bovine serum, heat inactivated (HyClone Laboratories Inc., Logan, UT, cat. SH30070.03HI), 50% L-WRN conditioned media (ATCC, cat. CRL-3276), 1.25 mM N-Acetyl-L-cysteine (Sigma-Aldrich, cat. A9165), 10 mM nicotinamide (Sigma-Aldrich, cat. N0636), 1X B-27 supplement (Thermo Fisher Scientific, cat. 17504044), 1X N-2 supplement (Thermo Fisher Scientific, cat. 17502048), 50 ng/mL human EGF (Thermo Fisher Scientific, cat. PHG0311), and 10 microM Y-27632 dihydrochloride (Tocris Bioscience, cat. 1254). The K12877-001-R-J1-PDC line was cultured in 6I media, which includes all 6C/Colon 1B media plus 10 ng/mL human FGF-10 (PeproTech, cat. 100-26), 1 ng/mL human FGF-2 (PeproTech, cat. 100-18B), 1 µM prostaglandin E2 (Tocris Bioscience, cat. 2296), […] hydrocortisone (Sigma-Aldrich, cat. H4001), and […] bovine insulin (Sigma-Aldrich, cat. I6634). The K86415-001-R-J1-PDC line was cultured in 6D media, which includes all 6C/Colon 1B media components minus the L-WRN conditioned media. The 485176-168-R4-J1-PDC was cultured in PANC media, which includes all 6C/Colon 1B media plus 100 ng/mL human FGF-10 (PeproTech, cat. 100-26), 500 nM SB-431542 (Selleckchem, cat. S1067), and 10 nM gastrin (Tocris Bioscience, cat. 3006). […]

[1] = compound alone, run of 09/09/2024
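Note: viability read after seven days of compound exposure.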

Row | Compound | IC50 (curve of compound) | viability, T/C (compound 0.0316 µM) | viability, T/C (compound 0.1 µM) | viability, T/C (compound 0.316 µM) | viability, T/C (compound 1 µM) | viability, T/C (compound 3.16 µM) | viability, T/C (compound 10 µM) | viability, T/C (compound 0.00316 µM) | also measured
1 | C#Cc1c(F)ccc2cc(O)cc(-c3ncc4c(N5CC6CCC(C5)N6)nc(OCC56CCCN5CC(F)C6)nc4c3F)c12 (stereo not given) |  | 104% [middle of 8 runs] | 106% [middle of 8 runs] | 106% [middle of 8 runs] | 101% [middle of 8 runs] | 85.1% [middle of 8 runs] | 59.7% [middle of 8 runs] |  | IC50 [1]: > 10000 nM and 8730 nM
2 | CC(C)NCC(C(=O)N1CCN(c2ncnc3c2C(C)CC3O)CC1)c1ccc(Cl)cc1 (stereo not given) | 1.54 µM [middle of 4 runs] | 106% (2×) and 97% and 95.9% | 96.2% [middle of 4 runs] | 92.3% [middle of 4 runs] | 62.4% [middle of 4 runs] | 30% [middle of 4 runs] | 13.7% [middle of 4 runs] |  | 
3 | CC(C)n1nc(-c2ccc3oc(N)nc3c2)c2c(N)ncnc21 | 31.2 nM [middle of 4 runs] | 48.1% [middle of 4 runs] | 28.8% [middle of 4 runs] |  |  |  |  | 91.6% [middle of 4 runs] | viability, T/C (compound 0.000316 µM): 108% [middle of 4 runs]; viability, T/C (compound 0.001 µM): 94% [middle of 4 runs]; viability, T/C (compound 0.01 µM): 72.3% [middle of 4 runs]
4 | CC(Nc1ccc2c(c1)OCCn1cc(N3C(=O)OCC3C(F)F)nc1-2)C(N)=O (stereo not given) |  | 95.9% [middle of 4 runs] |  | 50.3% [middle of 4 runs] | 38.3% [middle of 4 runs] | 26.1% [middle of 4 runs] | 16.3% [middle of 4 runs] |  | 
5 | CC1(O)CCCC1n1c(=O)c(C(F)F)cc2cnc(NC3CCN(S(C)(=O)=O)CC3)nc21 (stereo not given) | 307 nM [middle of 4 runs] | 103% [middle of 4 runs] |  | 31.9% [middle of 4 runs] | 37.1% [middle of 4 runs] | 23.7% [middle of 4 runs] | 3.54% [middle of 4 runs] |  | 
6 | CCC(CC)c1cc(NC2CCC(N)C2)n2nccc2n1 (stereo not given) | 1.78 µM [middle of 4 runs] | 114% and 109% and 101% (2×) | 107% [middle of 4 runs] | 101% [middle of 4 runs] |  | 2.11% [middle of 4 runs] | 0.82% [middle of 4 runs] |  | 
7 | CCc1c2c(nc3ccc(O)cc13)-c1cc3c(c(=O)n1C2)COC(=O)[C@]3(O)CC | 1.88 nM [middle of 4 runs] |  |  |  |  |  |  |  | viability, T/C (compound 0.000949 µM): 94.2% [middle of 4 runs]; viability, T/C (compound 0.003 µM): 26% [middle of 4 runs]; viability, T/C (compound 0.00949 µM): 6.94% [middle of 4 runs]; viability, T/C (compound 0.03 µM): 3.31% [middle of 4 runs]; viability, T/C (compound 0.0949 µM): 1.33% [middle of 4 runs]; viability, T/C (compound 0.3 µM): 0.94% [middle of 4 runs]
8 | CCn1c(-c2cc(N3CCN(C)CC3)cnc2C(C)OC)c2c3cc(ccc31)-c1csc(n1)CC(NC(=O)C1CC1C)C(=O)N1CCCC(N1)C(=O)OCC(C)(C)C2 (stereo not given) |  |  |  |  |  |  |  |  | viability, T/C (compound 0.000949 µM): 85.8% [middle of 8 runs]; viability, T/C (compound 0.003 µM): 65.7% [middle of 8 runs]; viability, T/C (compound 0.00949 µM): 37.1% [middle of 8 runs]; viability, T/C (compound 0.03 µM): 22.4% [middle of 8 runs]; viability, T/C (compound 0.0949 µM): 17.1% [middle of 8 runs]; viability, T/C (compound 0.3 µM): 14.2% [middle of 8 runs]; IC50 (compound alone, run of 08/26/2024): 5.72 nM [middle of 8 runs]
9 | CCn1c(-c2cccnc2C(C)OC)c2c3cc(ccc31)N1CCOC(CC(NC(=O)C(C(C)C)N(C)C(=O)C3(F)CCN(C(=O)C#CC(C)(C)N(C)C)CC3)C(=O)N3CCCC(N3)C(=O)OCC(C)(C)C2)C1 (stereo not given) |  |  |  |  |  |  |  |  | viability, T/C (compound 0.000949 µM): 82.9% [middle of 8 runs]; viability, T/C (compound 0.003 µM): 80.1% [middle of 8 runs]; viability, T/C (compound 0.00949 µM): 79.1% [middle of 8 runs]; viability, T/C (compound 0.03 µM): 75.8% [middle of 8 runs]; viability, T/C (compound 0.0949 µM): 68.4% [middle of 8 runs]; viability, T/C (compound 0.3 µM): 67.3% [middle of 8 runs]; IC50 (compound alone, run of 08/20/2024): > 300 nM
10 | C[C@@H](NC(=O)c1ncnc(N)c1Cl)c1ncc(C(=O)Nc2cc(C(F)(F)F)c(Cl)cn2)s1 | > 10000 nM | 103% and 104% and 109% (2×) | 105% [middle of 4 runs] | 99.7% [middle of 4 runs] | 104% (2×) and 113% and 98% | 109% [middle of 4 runs] | 103% [middle of 4 runs] |  | 
11 | Cc1nc(N2CCC3(CC2)COC(C)C3N)c(CO)nc1Sc1ccnc(N)c1Cl (stereo not given) |  | 105% [middle of 4 runs] |  |  |  | 64.6% [middle of 4 runs] | 49% [middle of 4 runs] |  | 
12 | Nc1ccn(C2OC(CO)C(O)C2(F)F)c(=O)n1 (stereo not given) | 34.1 nM [middle of 4 runs] |  | 3.52% [middle of 4 runs] | 2.19% [middle of 4 runs] | 2.92% [middle of 4 runs] |  |  | 107% [middle of 4 runs] | viability, T/C (compound 0.01 µM): 101% [middle of 4 runs]
13 | O=C(c1ccc(F)c(F)c1Nc1ccc(I)cc1F)N1CC(O)([C@@H]2CCCCN2)C1 |  |  |  | 48.7% [middle of 4 runs] | 27.1% [middle of 4 runs] |  |  | 99.8% and 99.4% and 102% (2×) | viability, T/C (compound 0.01 µM): 93.1% [middle of 4 runs]

Now from value to compound, other results behind:

Row | IC50 (curve of compound) | Compound | viability, T/C (compound 0.0316 µM) | viability, T/C (compound 0.1 µM) | viability, T/C (compound 0.316 µM) | viability, T/C (compound 1 µM) | viability, T/C (compound 3.16 µM) | viability, T/C (compound 10 µM) | viability, T/C (compound 0.00316 µM) | also measured
14 | > 1000 nM | C=CC(=O)N1CCN(c2nc(OCC3CCCN3C)nc3c(F)c(-c4nc(N)cc(C)c4C(F)(F)F)c(Cl)cc23)C(C)C1 (stereo not given) | 86.8% [middle of 12 runs] |  | 85.5% [middle of 12 runs] | 86% [middle of 12 runs] |  |  | 89.6% [middle of 12 runs] | IC50 [1]: > 1000 nM
15 | > 1000 nM | C=CC(=O)Nc1cc(Nc2nccc(-c3cn(C)c4ccccc34)n2)c(OC)cc1N(C)CCN(C)C | 95.9% [middle of 4 runs] | 102% (2×) and 84% and 95.2% | 91.4% [middle of 4 runs] | 68% [middle of 4 runs] |  |  | 101% [middle of 4 runs] | viability, T/C (compound 0.01 µM): 99.7% [middle of 4 runs]
16 | 13.6 nM [middle of 4 runs] | CC1(C)CCC(Nc2ncc(C(F)(F)F)c(-c3c[nH]c4c(P(C)(C)=O)c(C#N)ccc34)n2)CN1 (stereo not given) |  |  |  |  |  |  |  | viability, T/C (compound 0.000949 µM): 107% (2×) and 108% and 102%; viability, T/C (compound 0.003 µM): 93.6% [middle of 4 runs]; viability, T/C (compound 0.00949 µM): 58.3% [middle of 4 runs]; viability, T/C (compound 0.0949 µM): 22.4% [middle of 4 runs]; viability, T/C (compound 0.3 µM): 19.5% [middle of 4 runs]
17 | > 1000 nM and 906 nM | CCN1CCN(Cc2ccc(Nc3ncc(F)c(-c4cc(F)c5nc(C)n(C(C)C)c5c4)n3)nc2)CC1 | 99.3% [middle of 4 runs] | 102% (2×) and 90.9% and 101% | 95.1% [middle of 4 runs] | 70% [middle of 4 runs] |  |  | 105% [middle of 4 runs] | viability, T/C (compound 0.01 µM): 97.8% [middle of 4 runs]
